Assay results as given in ChEMBL document CHEMBL4651402, “Screening of ~5500 FDA-approved drugs and clinical candidates for anti-SARS-CoV-2 activity” (2021).
pIC50: −log10 of the molar value.

How the values were obtained:
SARS-CoV-2 [1] = experiment: microbe, parasite or virus in culture; type: functional, organism-based, Chlorocebus sabaeus, Vero C1008; conditions: Severe acute respiratory syndrome coronavirus 2, Vero C1008, 48 h; for pIC50: read-out: IC50; for IC50: read-out: pIC50 (converted)
SARS-CoV-2 [2] = experiment: microbe, parasite or virus in culture; conditions: Severe acute respiratory syndrome coronavirus 2, Vero C1008, 48 h; for IC50: read-out: pIC50 (converted)
in vitro = conditions: chlorocebus sabaeus, Vero E6 (Vero C1008) cells

| SMILES | pIC50 (SARS-CoV-2 [1]) | IC50 (SARS-CoV-2 [1]) | pIC50 (SARS-CoV-2 [2]) | IC50 (SARS-CoV-2 [2]) | CC50 at 48 h (in vitro; CC50) | CC50 at 48 h (in vitro; pCC50) |
| --- | --- | --- | --- | --- | --- | --- |
| CNCc1ccc(C)c(NC(=O)c2ccc(Nc3nc(-c4ccccc4)c4ccccc4n3)cc2)c1 [BMS-833923] | < 4.00 | > 100 µM | 5.53 | 2.95 µM | 3.09 µM | 3.09 µM |
| COc1ccccc1N1CCN(CCCCNC(=O)c2ccc3ccccc3c2)CC1 [BP-897] | < 4.60 | > 25.1 µM | < 4.60 | > 25.1 µM | 30.2 µM | 30.2 µM |
| O=c1ccc2ccc(OCCCCN3CCN(c4cccc5sccc45)CC3)cc2[nH]1 [BREXPIPRAZOLE] | < 4.00 | > 100 µM | < 4.00 | > 100 µM | 12 µM | 12 µM |
| COc1cc(Br)c2oc(C3CCNCC3)cc2c1 [BROFAROMINE] | < 4.00 | > 100 µM | 4.83 | 14.8 µM | 19.1 µM | 19.1 µM |
| CC(C)(Cc1c[nH]c2ccccc12)NCC(O)COc1ccccc1C#N (centres undefined) [BUCINDOLOL] | < 4.00 | > 100 µM | 4.77 | 17 µM | 30.9 µM | 30.9 µM |
| CC(C)(C)c1ccc(CN2CCN(C(c3ccccc3)c3ccc(Cl)cc3)CC2)cc1 (centres undefined) [BUCLIZINE] | 4.69 | 20.4 µM | < 4.00 | > 100 µM | 81.3 µM | 81.3 µM |
| CCCCN(CCCC)CCCOc1ccc(C(=O)c2c(CC)cc3ccccn23)cc1 [BUTOPROZINE] | < 4.00 | > 100 µM | < 4.00 | > 100 µM | 6.61 µM | 6.61 µM |
| CCC(=O)c1ccc2c(c1)N(CCCN1CCN(CCO)CC1)c1ccccc1S2 [CARPHENAZINE] | < 4.00 | > 100 µM | < 4.00 | > 100 µM | 6.31 µM | 6.31 µM |
| NC(=O)C1(N2CCCCC2)CCN(CCCN2c3ccccc3CCc3ccccc32)CC1 [CARPIPRAMINE] | < 4.00 | > 100 µM | 5.05 | 8.91 µM | 8.61 µM | 8.51 µM |
| COc1ccccc1OCCNCC(O)COc1cccc2[nH]c3ccccc3c12 (centres undefined) [CARVEDILOL] | 5.00 | 10 µM | 4.81 | 15.5 µM | 17 µM | 17 µM |
| CC(=O)N1CCN([C@H]2CCN(C(=O)N(C)[C@H](C)c3cc(C(F)(F)F)cc(C(F)(F)F)c3)[C@@H](c3ccc(F)cc3C)C2)CC1 [CASOPITANT] | < 4.60 | > 25.1 µM | < 4.60 | > 25.1 µM | 17.8 µM | 17.8 µM |
| COc1cc2c(Oc3ccc4[nH]c(C)cc4c3F)ccnc2cc1OCC1(N)CC1 [CATEQUENTINIB] | < 4.00 | > 100 µM | < 4.00 | > 100 µM | 5.25 µM | 5.25 µM |
| Cc1ccccc1CN1CCN(CCOC(c2ccccc2)c2ccccc2Cl)CC1 (centres undefined) [CHLORBENZOXAMINE] | < 4.60 | > 25.1 µM | < 4.00 | > 100 µM | 15.3 µM | 15.1 µM |
| CCN(CC)CCCC(C)Nc1ccnc2cc(Cl)ccc12 (centres undefined) [CHLOROQUINE] | ~5.02 | ~9.55 µM | ~5.23 | ~5.89 µM | ~38.7 µM | ~38.9 µM |
| CN(C)CCOC(C)(c1ccccc1)c1ccc(Cl)cc1 (centres undefined) [CHLORPHENOXAMINE] | ~4.84 | ~14.5 µM | 4.71 | 19.5 µM | 28.2 µM | 28.2 µM |
| CN(C)CC/C=C1/c2ccccc2Sc2ccc(Cl)cc21 [CHLORPROTHIXENE] | < 4.00 | > 100 µM | 5.15 | 7.08 µM | 13.8 µM | 13.8 µM |
| Clc1ccc(C(c2ccccc2)N2CCN(C/C=C/c3ccccc3)CC2)cc1 (centres undefined) [CLOCINIZINE] | 4.68 | 20.9 µM | < 4.00 | > 100 µM | 21.9 µM | 21.9 µM |
| CN1CCC(=C2c3ccccc3Oc3ccc(Cl)cc32)CC1 [CLOPIPAZAN] | < 4.00 | > 100 µM | < 4.70 | > 20 µM | 15 µM | 14.8 µM |
| CCN(CC)CCNC(=O)c1cc(Cl)c(NC(=O)COc2ccc(Cl)cc2)cc1OC [CLOXACEPRIDE] | < 4.00 | > 100 µM | 5.44 | 3.63 µM | 2.85 µM | 2.82 µM |
| C[C@H]1[C@H]2CC[C@H]3[C@@H]4CC=C5C[C@@H](N(C)C)CC[C@]5(C)[C@H]4CC[C@]23CN1C [CONESSINE] | < 4.60 | > 25.1 µM | 4.92 | 12 µM | 34.7 µM | 34.7 µM |
| COc1cc(/C=C/C(=O)CC(=O)/C=C/c2ccc(O)c(OC)c2)ccc1O [CURCUMIN] | < 4.00 | > 100 µM | < 4.00 | > 100 µM | 14.8 µM | 14.8 µM |
| NC(=O)C(c1ccccc1)(c1ccccc1)[C@@H]1CCN(CCc2ccc3c(c2)CCO3)C1 [DARIFENACIN] | < 4.00 | > 100 µM | < 4.60 | > 25.1 µM | 56.2 µM | 56.2 µM |
| CCN(CC)CCOC1(c2ccccc2)CCN(CCNc2ccccc2)CC1 [DIAMOCAINE] | 4.65 | 22.4 µM | ~5.02 | ~9.55 µM | 46.8 µM | 46.8 µM |
| CCCCOc1cc(C(=O)NCCN(CC)CC)c2ccccc2n1 [DIBUCAINE] | ~4.53 | ~29.5 µM | 4.54 | 28.8 µM | ~39.6 µM | ~39.8 µM |
| Oc1cc2c(cc1O)[C@H]1c3ccccc3CN[C@@H]1CC2 [DIHYDREXIDINE] | < 4.00 | > 100 µM | 5.10 | 7.94 µM | 18.6 µM | 18.6 µM |
| COc1cc(C(=O)OCCCN2CCCN(CCCOC(=O)c3cc(OC)c(OC)c(OC)c3)CC2)cc(OC)c1OC [DILAZEP] | < 4.00 | > 100 µM | < 4.00 | > 100 µM | ~28.2 µM | ~28.2 µM |
| O=C(Nc1ccccc1)OCC(CN1CCCCC1)OC(=O)Nc1ccccc1 (centres undefined) [DIPERODON] | < 4.60 | > 25.1 µM | 4.82 | 15.1 µM | > 25.1 µM | > 25.1 µM |
| c1ccc(C(c2ccccc2)N2CCN(CCCC3(c4ccccc4)OCCO3)CC2)cc1 [DOTARIZINE] | 5.00 | 10 µM | < 4.70 | > 20 µM | 17.4 µM | 17.4 µM |
| CN(C)CC/C=C1\c2ccccc2CSc2ccccc21 [DOTHIEPIN] | < 4.60 | > 25.1 µM | 4.78 | 16.6 µM | 20 µM | 20 µM |
